Calls of active or inactive are those of the source. The rule behind the calls is not given here.

The subject of one assay is Saprolegnia. Kind of assay: Antifungal activity against Saprolegnia species assessed as lowest dose required to total inhibition of fungal growth. In kind it is functional.
Assay [1] deals with Staphylococcus haemolyticus. In words: Antibaterial activity against Staphylococcus haemolyticus assessed as lowest dose required to total inhibition of bacterial growth. In kind it is functional.
Another assay concerns Phialophora verrucosa. Kind of assay: Antifungal activity against Phialophora verrucosa assessed as lowest dose required to total inhibition of fungal growth. In kind it is functional.
The test system of a further assay is Cryptococcus neoformans. In words: Antifungal activity against Cryptococcus neoformans assessed as lowest dose required to total inhibition of fungal growth. In kind it is functional.
The subject of the next assay is Microsporum canis. Kind of assay: Antifungal activity against Microsporum canis assessed as lowest dose required to total inhibition of fungal growth. The class given is functional.
The test system of the next assay is Candida tropicalis. In words: Antifungal activity against Candida tropicalis assessed as lowest dose required to total inhibition of fungal growth. In kind it is functional.
Assay [2] deals with Candida albicans. In words: Antifungal activity against Candida albicans assessed as lowest dose required to total inhibition of fungal growth. In kind it is functional.
The subject of another assay is Trichophyton rubrum. In words: Antifungal activity against Trichophyton rubrum assessed as lowest dose required to total inhibition of fungal growth. In kind it is functional.
The test system of assay [3] is Trichophyton mentagrophytes. In words: Antifungal activity against Trichophyton mentagrophytes assessed as lowest dose required to total inhibition of fungal growth. In kind it is functional.
For the next assay, the system named is Sporothrix schenckii. Kind of assay: Antifungal activity against Sporothrix schenckii assessed as lowest dose required to total inhibition of fungal growth. In kind it is functional.
The subject of a further assay is Streptococcus pyogenes. In words: Antibaterial activity against Streptococcus pyogenes assessed as lowest dose required to total inhibition of bacterial growth. The class given is functional.
Assay [4] relates to Candida albicans. In words: Antifungal activity against Candida albicans infected in guinea pig at 10 mg/kg, po qd. In kind it is functional, organism-based. Details: dose 10 mg/kg.
For another assay, the system named is Mucor. In words: Antifungal activity against Mucor species assessed as lowest dose required to total inhibition of fungal growth. The class given is functional.
Assay [5] deals with Erysipelothrix rhusiopathiae. Kind of assay: Antibaterial activity against Erysipelothrix insidiosa assessed as lowest dose required to total inhibition of bacterial growth. The class given is functional.
In another assay the test system is Aspergillus fumigatus. Kind of assay: Antifungal activity against Aspergillus fumigatus assessed as lowest dose required to total inhibition of fungal growth. In kind it is functional.

`Clc1ccc(OCCCC(Cn2ccnc2)c2ccc(Cl)cc2Cl)cc1.O=C(O)C(=O)O` (stereo not drawn): the GI in the assay with Saprolegnia was 10 µg/mL; in [1], 1 µg/mL; with Phialophora verrucosa, 100 µg/mL; with Cryptococcus neoformans it was 10 µg/mL; in the assay on Microsporum canis, 10 µg/mL; with Candida tropicalis, over 100 µg/mL. Besides, the GI is over 100 µg/mL in the assay with Candida albicans [2]; under 1 µg/mL in the assay with Trichophyton rubrum; under 1 µg/mL in assay [3]; under 1 µg/mL in the assay with Sporothrix schenckii; under 1 µg/mL in the assay on Streptococcus pyogenes; over 100 µg/mL in the assay with Mucor. Also, the GI in assay [5] is under 1 µg/mL; in the assay on Aspergillus fumigatus, 100 µg/mL. Besides, the result in the assay with Candida albicans [4] was inactive.

For `Fc1ccc(OCCC(Cn2ccnc2)c2ccc(Cl)cc2Cl)cc1.O=C(O)C(=O)O` (stereo not drawn), the GI was 10 µg/mL with Saprolegnia; 10 µg/mL in [1]; 100 µg/mL with Phialophora verrucosa; under 1 µg/mL with Cryptococcus neoformans; 10 µg/mL in the assay on Microsporum canis; over 100 µg/mL with Candida tropicalis. Further, the GI was 10 µg/mL in the assay with Candida albicans [2]; under 1 µg/mL with Trichophyton rubrum; under 1 µg/mL in assay [3]; 10 µg/mL with Sporothrix schenckii; 1 µg/mL in the assay on Streptococcus pyogenes; 100 µg/mL in the assay on Mucor. For the same compound, the values for the GI (in [5]; with Aspergillus fumigatus) were under 1 µg/mL and 100 µg/mL, respectively. In addition, the result in the assay on Candida albicans [4] was Active.

In the case of `Clc1ccc(C(CCOc2ccccc2)Cn2ccnc2)c(Cl)c1.O=C(O)C(=O)O` (stereo not drawn), the GI was 100 µg/mL in the assay with Saprolegnia; 10 µg/mL in assay [1]; 100 µg/mL in the assay with Phialophora verrucosa; under 1 µg/mL with Cryptococcus neoformans; 10 µg/mL in the assay on Microsporum canis; 100 µg/mL in the assay on Candida tropicalis. Also, the GI in the assay on Candida albicans [2] was 10 µg/mL; in the assay on Trichophyton rubrum it was under 1 µg/mL; in assay [3] it was under 1 µg/mL; in the assay with Sporothrix schenckii, 10 µg/mL; with Streptococcus pyogenes, 1 µg/mL; in the assay on Mucor, 100 µg/mL. Further, the GI in assay [5] amounted to 1 µg/mL; in the assay on Aspergillus fumigatus, 100 µg/mL. Besides, the outcome with Candida albicans [4] was inactive.

Take `Clc1ccc(C(COc2ccc(Br)cc2)Cn2ccnc2)c(Cl)c1.O=[N+]([O-])O` (stereo not drawn): the GI is 100 µg/mL in the assay with Saprolegnia; 10 µg/mL in [1]; 100 µg/mL in the assay on Phialophora verrucosa; under 1 µg/mL in the assay on Cryptococcus neoformans; under 1 µg/mL with Microsporum canis; over 100 µg/mL with Candida tropicalis. In addition, the GI with Candida albicans [2] was 100 µg/mL; in the assay with Trichophyton rubrum, under 1 µg/mL; in [3] it was under 1 µg/mL; in the assay on Sporothrix schenckii, 100 µg/mL; in the assay on Streptococcus pyogenes, under 1 µg/mL; with Mucor, 100 µg/mL. Further, the GI in assay [5] was under 1 µg/mL; with Aspergillus fumigatus, 100 µg/mL.

`Clc1ccc(C(CCCOc2ccccc2)Cn2ccnc2)c(Cl)c1.O=C(O)C(=O)O` (stereo not drawn): the GI in the assay with Saprolegnia is 10 µg/mL; in assay [1], 10 µg/mL; with Phialophora verrucosa, 10 µg/mL; in the assay on Cryptococcus neoformans, under 1 µg/mL; in the assay on Microsporum canis it was 10 µg/mL; in the assay with Candida tropicalis, over 100 µg/mL. For the same compound, the GI in the assay on Candida albicans [2] is over 100 µg/mL; in the assay on Trichophyton rubrum, under 1 µg/mL; in [3], under 1 µg/mL; with Sporothrix schenckii it was under 1 µg/mL; with Streptococcus pyogenes it was under 1 µg/mL; in the assay with Mucor, over 100 µg/mL. Also, the GI is under 1 µg/mL in assay [5] and 10 µg/mL with Aspergillus fumigatus.

For the compound `Clc1ccc(C(CCCOc2ccc(Br)cc2)Cn2ccnc2)c(Cl)c1.O=C(O)C(=O)O` (stereo not drawn), the GI with Saprolegnia is 100 µg/mL; in assay [1] it was 10 µg/mL; in the assay with Phialophora verrucosa, 100 µg/mL; in the assay with Cryptococcus neoformans it was 10 µg/mL; in the assay with Microsporum canis, 100 µg/mL; in the assay with Candida tropicalis, over 100 µg/mL. The GI was over 100 µg/mL in the assay on Candida albicans [2]; 10 µg/mL with Trichophyton rubrum; under 1 µg/mL in assay [3]; 100 µg/mL with Sporothrix schenckii; under 1 µg/mL with Streptococcus pyogenes; over 100 µg/mL with Mucor. The GI in assay [5] is under 1 µg/mL; in the assay on Aspergillus fumigatus, over 100 µg/mL. For the same compound, the outcome with Candida albicans [4] was inactive.

Consider `Clc1ccc(OCC(Cn2ccnc2)c2ccc(Br)cc2)cc1.O=[N+]([O-])O` (stereo not drawn), for which the GI in the assay with Saprolegnia is over 100 µg/mL; in assay [1], 10 µg/mL; in the assay with Phialophora verrucosa it was 100 µg/mL; in the assay with Cryptococcus neoformans, 10 µg/mL; with Microsporum canis, 10 µg/mL; with Candida tropicalis it was over 100 µg/mL. Besides, the GI in the assay on Candida albicans [2] is 100 µg/mL; in the assay on Trichophyton rubrum, under 1 µg/mL; in [3] it was under 1 µg/mL; in the assay with Sporothrix schenckii, 10 µg/mL; with Streptococcus pyogenes it was under 1 µg/mL; in the assay with Mucor it was over 100 µg/mL. The GI was under 1 µg/mL in assay [5] and 100 µg/mL in the assay on Aspergillus fumigatus.

In the case of `Clc1ccc(OCC(Cn2ccnc2)c2ccc(Cl)cc2Cl)cc1.O=[N+]([O-])O` (stereo not drawn), the GI in the assay with Saprolegnia is 100 µg/mL; in [1] it was 10 µg/mL; in the assay on Phialophora verrucosa, 10 µg/mL; in the assay with Cryptococcus neoformans, under 1 µg/mL; with Microsporum canis, 10 µg/mL; with Candida tropicalis, over 100 µg/mL. Also, the GI is 10 µg/mL in the assay on Candida albicans [2]; under 1 µg/mL in the assay with Trichophyton rubrum; under 1 µg/mL in [3]; 10 µg/mL in the assay with Sporothrix schenckii; under 1 µg/mL with Streptococcus pyogenes; 100 µg/mL in the assay with Mucor. Further, the GI was under 1 µg/mL in assay [5] and 10 µg/mL in the assay with Aspergillus fumigatus.

Turning to `Clc1ccc(C(CCOc2ccccc2Cl)Cn2ccnc2)c(Cl)c1.O=C(O)C(=O)O` (stereo not drawn), the GI in the assay with Saprolegnia was 100 µg/mL; in assay [1] it was 1 µg/mL; with Phialophora verrucosa, 100 µg/mL; in the assay with Cryptococcus neoformans, under 1 µg/mL; in the assay on Microsporum canis, 10 µg/mL; in the assay with Candida tropicalis, over 100 µg/mL. Besides, the GI in the assay on Candida albicans [2] was over 100 µg/mL; in the assay with Trichophyton rubrum it was under 1 µg/mL; in [3] it was under 1 µg/mL; in the assay on Sporothrix schenckii, 10 µg/mL; in the assay with Streptococcus pyogenes, under 1 µg/mL; in the assay on Mucor, over 100 µg/mL. The GI in [5] was under 1 µg/mL; in the assay on Aspergillus fumigatus, over 100 µg/mL. In addition, in the assay on Candida albicans [4], the result was inactive.

For `Clc1ccc(C(COc2ccccc2Cl)Cn2ccnc2)c(Cl)c1.O=[N+]([O-])O` (stereo not drawn), the GI is 100 µg/mL in the assay with Saprolegnia; 1 µg/mL in assay [1]; 100 µg/mL with Phialophora verrucosa; under 1 µg/mL with Cryptococcus neoformans; 10 µg/mL in the assay on Microsporum canis; over 100 µg/mL in the assay with Candida tropicalis. Besides, the GI with Candida albicans [2] was 100 µg/mL; in the assay on Trichophyton rubrum, under 1 µg/mL; in assay [3], under 1 µg/mL; in the assay with Sporothrix schenckii, 10 µg/mL; in the assay with Streptococcus pyogenes it was under 1 µg/mL; in the assay on Mucor it was over 100 µg/mL. Moreover, the values for the GI (in assay [5]; in the assay with Aspergillus fumigatus) were under 1 µg/mL and 100 µg/mL, respectively.

As to `Clc1ccc(C(CCOc2ccc(Br)cc2)Cn2ccnc2)c(Cl)c1.O=[N+]([O-])O` (stereo not drawn), the GI was under 10 µg/mL in the assay on Saprolegnia; 100 µg/mL in [1]; under 10 µg/mL in the assay on Phialophora verrucosa; under 10 µg/mL with Cryptococcus neoformans; under 10 µg/mL with Microsporum canis; 100 µg/mL in the assay with Candida tropicalis. Further, the GI was under 10 µg/mL in the assay on Candida albicans [2]; under 10 µg/mL in the assay with Trichophyton rubrum; under 10 µg/mL in [3]; under 10 µg/mL with Sporothrix schenckii; under 10 µg/mL in the assay on Streptococcus pyogenes; 100 µg/mL in the assay on Mucor. Further, the GI in [5] is under 10 µg/mL; with Aspergillus fumigatus it was 100 µg/mL.

With `COc1ccc(OCCC(Cn2ccnc2)c2ccc(Cl)cc2Cl)cc1.O=[N+]([O-])O` (stereo not drawn), the GI with Saprolegnia was under 1 µg/mL; in assay [1] it was 10 µg/mL; in the assay on Phialophora verrucosa it was 10 µg/mL; in the assay with Cryptococcus neoformans, under 1 µg/mL; with Microsporum canis, 10 µg/mL; in the assay with Candida tropicalis, over 100 µg/mL. For the same compound, the GI in the assay on Candida albicans [2] is 100 µg/mL; in the assay with Trichophyton rubrum, under 1 µg/mL; in assay [3] it was under 1 µg/mL; with Sporothrix schenckii it was 10 µg/mL; with Streptococcus pyogenes it was under 1 µg/mL; in the assay on Mucor, 100 µg/mL. Further, the GI in assay [5] was under 1 µg/mL; with Aspergillus fumigatus it was 100 µg/mL.
